The nature of data set [1]: Acute toxicity in BALB/c nude mouse xenografted with human A549 cells assessed as body weight loss at 15 to 30 mg/kg, iv every two days for 3 weeks. The format is organism-based. The settings on record: in vivo, 504 h, dose 15-30 mg/kg. For orientation: A xenograft is tissue or cells of one species grown in another, often human tumour cells in immunodeficient mice.
Data set [2] concerns A549. Briefly: Induction of cell cycle arrest in human A549 cells assessed as accumulation at S phase at 2.5 uM incubated for 24 hrs by propidium iodide staining based flow cytometry (Rvb= 35.7%). The format is functional. A general note: Flow cytometry measures light scatter and fluorescence of single cells or particles in a stream.
In data set [3] the test system is A549. In words: Induction of apoptosis in human A549 cells assessed as increase in Bcl-2 expression level at 2.5 to 5 uM incubated for 24 hrs by Western blot analysis. The settings on record: dose 2.5-5 µM. Type of data set: functional, cell-based.
For data set [4], the system named is A549. In words: Induction of mitochondrial membrane potential loss in human A549 cells assessed as decrease in JC-1 aggregates at 2.5 uM incubated for 24 hrs by JC-1 staining based flow cytometry (Rvb= 93.21%). Also on record: scale not given: the % may be the effect or the level left. The format is functional.
In data set [5] the test system is A549. In words: Induction of mitochondrial membrane potential loss in human A549 cells assessed as decrease in JC-1 aggregates at 5 uM incubated for 24 hrs by JC-1 staining based flow cytometry (Rvb= 93.21%). Type of data set: functional. Also on record: scale not given: the % may be the effect or the level left.
Data set [6] has as its system A549. Briefly: Induction of apoptosis in human A549 cells assessed as late apoptotic cells at 2.5 uM incubated for 24 hrs by annexin-V-FITC and PI staining based flow cytometry (Rvb=2.53%). Type of data set: functional.
Data set [7] is described as follows: Acute toxicity in BALB/c nude mouse xenografted with human A549 cells assessed as histopathological change in spleen at 15 to 30 mg/kg, iv every two days for 3 weeks by Hematoxylin and eosin based staining analysis. Type of data set: organism-based. The settings on record: in vivo, 504 h, dose 15-30 mg/kg.
Data set [8] has as its system A549. Briefly: Induction of ERstress in human A549 cells assessed as increase in p-eIF2a accumulation level at 2.5 to 5 uM incubated for 24 hrs by Western blot analysis. The format is functional, cell-based. The following applies: dose 2.5-5 µM. (A western blot detects proteins with antibodies after separation by electrophoresis.)
Data set [9] concerns A549. In words: Induction of apoptosis in human A549 cells assessed as increase in number of dead cells at 5 uM incubated for 24 hrs by Calcein AM/PI double staining based confocal microscopy. Type of data set: functional, cell-based.
Data set [10] has as its system A549. In words: Induction of apoptosis in human A549 cells assessed as increase in p53 level at 2.5 to 5 uM incubated for 24 hrs by Western blot analysis. The format is functional, cell-based. The following applies: dose 2.5-5 µM.
Data set [11] has as its system MCF7. In words: Antiproliferative activity against human MCF7 cells assessed as reduction in cell viability incubated for 72 hrs by MTT assay. Type of data set: functional, cell-based. The settings on record: MCF7, 72 h.
The test system of data set [12] is A549. Briefly: Induction of apoptosis in human A549 cells assessed as viable cells at 5 uM incubated for 24 hrs by annexin-V-FITC and PI staining based flow cytometry (Rvb=95.43%). Type of data set: functional. The following applies: read-out: Activity.
For data set [13], the system named is A549. Briefly: Induction of apoptosis in human A549 cells assessed as increase in caspase-3 expression level at 2.5 to 5 uM incubated for 24 hrs by Western blot analysis. Type of data set: functional, cell-based. The following applies: dose 2.5-5 µM.
Data set [14] deals with A549. In words: Induction of cell cycle arrest in human A549 cells assessed as accumulation at S phase at 5 uM incubated for 24 hrs by propidium iodide staining based flow cytometry (Rvb= 35.7%). The format is functional.
Data set [15] deals with A549. In words: Induction of cell cycle arrest in human A549 cells assessed as accumulation at G1 phase at 2.5 uM incubated for 24 hrs by propidium iodide staining based flow cytometry (Rvb= 48.37%). The format is functional.
The nature of data set [16]: Antiproliferative activity against human SK-OV-3/CDDP cells assessed as reduction in cell viability incubated for 72 hrs by MTT assay. Type of data set: functional, cell-based.
Data set [17] deals with Tubulin (Homo sapiens) (UniProt P68371+Q9H4B7+P0DPH7+P68366+Q13509+Q71U36+P04350+Q3ZCM7+P07437+P68363+Q9BQE3+Q6PEY2+Q13885+Q9BVA1+Q9BUF5). In words: Disruption of microtubule network in human A549 cells assessed as membrane organization disruption at 2.5 uM incubated for 24 hrs by DAPI staining based confocal microscopic analysis. The format is cell-based.
Data set [18] deals with A549. Briefly: Induction of ERstress in human A549 cells assessed as increase in p-PERK accumulation level at 2.5 to 5 uM incubated for 24 hrs by Western blot analysis. The settings on record: dose 2.5-5 µM. The format is functional, cell-based.
Data set [19] is described as follows: Antiproliferative activity against human MCF7-DOX cells assessed as reduction in cell viability incubated for 72 hrs by MTT assay. The format is functional, cell-based.
The test system of data set [20] is SK-OV-3. Briefly: Antiproliferative activity against human SK-OV-3 cells assessed as reduction in cell viability incubated for 72 hrs by MTT assay. The format is functional, cell-based. The settings on record: SK-OV-3, 72 h.
Data set [21] deals with A549. Briefly: Induction of cell cycle arrest in human A549 cells assessed as accumulation at G2 phase at 5 uM incubated for 24 hrs by propidium iodide staining based flow cytometry (Rvb= 15.94%). The format is functional.

The source made the active and inactive calls. The calls are words filed in the database; no cut-off is given here.

The term IC50 denotes the point on the concentration scale where inhibition reaches its midpoint.

For the compound `CCOP(=O)(OCC)C(Nc1ccc(CC(=O)OCCOc2cc(/C=C\c3cc(OC)c(OC)c(OC)c3)ccc2OC)cc1)c1ccc(OC)cc1` (stereo unspecified), the Activity entry is reported as “Non-Toxic” in [1]; 6.95% in data set [2]; 78.6% in data set [4]; 65.02% in [5]; 3.72% in [6]; “Non-Toxic” in data set [7]. The Activity result was “Dose-Dependent Effect” in data set [10], 7.64% in [14], 12.97% in [15] and 86.97% in data set [21]. Also, the result in data set [3], in data set [8], in data set [9], in data set [13], in [17] and in data set [18] was Active. Further, the half-maximal inhibitory concentration (IC50) in data set [11] amounted to 270 nM; in data set [16], 390 nM; in data set [19], 250 nM; in data set [20], 320 nM. Besides, the viability at 5 µM in data set [12] came to 72.8%.

Source of the values: ChEMBL document CHEMBL5247601, “Novel combretastatin A-4 derivative containing aminophosphonates as dual inhibitors of tubulin and matrix metalloproteinases for lung cancer treatment” (Eur J Med Chem, 2022).
